Results taken from publication PMC3227869 (Biochemistry, 2009).

How the values were obtained:
Assay type in all cases: biochemical
E. coli GCH I (FolE) = E. coli GCH I (FolE) (Escherichia coli, UniProt P0A6T5); assay: HPLC of product; conditions: anaerobic
mouse PTPS (mPTPS) = target: T1, mouse PTPS (mPTPS) (Mus musculus, UniProt Q9R1Z7); assay: HPLC of product, UV-visible spectra; conditions: anaerobic; H2NTP generated in situ from GTP by FolE; control reaction
T1 sequence (Q9R1Z7 1-144): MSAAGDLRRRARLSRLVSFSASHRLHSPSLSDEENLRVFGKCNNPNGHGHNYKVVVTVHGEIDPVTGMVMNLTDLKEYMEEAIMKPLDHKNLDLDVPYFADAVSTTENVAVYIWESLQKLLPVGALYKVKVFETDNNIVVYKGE

E. coli QueD = target: T2, E. coli QueD (Escherichia coli, UniProt P65870); assay: HPLC of product, UV-visible spectra; conditions: anaerobic (95% N2:5% H2)
T2 sequence (P65870 1-121): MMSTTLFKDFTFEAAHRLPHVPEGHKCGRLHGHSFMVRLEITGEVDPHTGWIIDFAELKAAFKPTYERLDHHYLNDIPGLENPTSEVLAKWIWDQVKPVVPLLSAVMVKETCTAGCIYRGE

Chain of E. coli GCH I (FolE) (P0A6T5 2-222): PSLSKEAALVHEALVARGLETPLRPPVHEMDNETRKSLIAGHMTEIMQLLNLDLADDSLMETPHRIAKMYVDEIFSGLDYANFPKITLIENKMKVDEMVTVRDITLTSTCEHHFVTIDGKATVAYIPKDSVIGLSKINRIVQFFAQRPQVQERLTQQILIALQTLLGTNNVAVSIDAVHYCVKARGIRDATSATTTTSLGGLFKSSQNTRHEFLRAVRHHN

Nc1nc2c(ncn2[C@@H]2O[C@H](COP(=O)(O)OP(=O)(O)OP(=O)(O)O)[C@@H](O)[C@H]2O)c(=O)[nH]1 [GTP]
HPLC of product (E. coli GCH I (FolE)): H2NTP could be produced quantitatively from GTP

Nc1nc2c(c(=O)[nH]1)N=C([C@H](O)[C@H](O)COP(=O)(O)OP(=O)(O)OP(=O)(O)O)CN2 [H2NTP]
HPLC of product, UV-visible spectra (mouse PTPS (mPTPS)): H2NTP was quantitatively converted to PPH4

C[C@H](O)C(=O)C1=Nc2c(nc(N)[nH]c2=O)NC1 [sepiapterin]
HPLC of product, UV-visible spectra (E. coli QueD): the same product forms when sepiapterin is the substrate for QueD
